Structures can show the parent of a compound that is named as a salt. Marks after values point to notes of the source that are not given here. Values belong to the compound of their own block, whether it stands above or below them.
Columns and labels:
[1] = In vitro transbuccal permeation of 0.5% ODAN.HCl gel with iontophoresis and/or chemical enhancers (Franz diffusion cells)
[2] = In vitro transdermal permeation of LHCl, NHT and DHCl gels (Franz diffusion cells); details: for enhancement effect on transdermal delivery of DHCl / enhancement effect on transdermal delivery of LHCl / enhancement effect on transdermal delivery of NHT: in words, 1 hr. enhancer pretreatment, compared to control; for Flux / Q8: Transdermal
[3] = In vitro transbuccal permeation of LHCl, NHT and DHCl gels (Franz diffusion cells); details: for Q8 / Flux: Transbuccal
[4] = Physicochemical properties stated in the description; details: in words; reason for preparing solutions in PG only
[5] = test system: EpiOral™ tissue
[6] = Histological study of buccal tissue (H&E, light microscopy); set-up: species or system porcine; details: after passive permeation (FIG. 6); light micrographs 40×
[7] = in words; drug description; cited from earlier work
[8] = in words, 1 hr. enhancer pretreatment, compared to control
[9] = Stage II after 8 h iontophoresis 0.2 mA
[10] = iontophoresis 0.3 mA for 8 h, listed as nicotine hydrogen tartrate, tartrate
[11] = iontophoresis 0.3 mA for 8 h, tartrate
[12] = Control (untreated passive), 8 h (Tables 19-21)
[13] = iontophoresis 0.3 mA for 8 h (Tables 19-21)

SMILES: CCCCCCCCCCCCOC(=O)C(C)N(C)C (stereo not shown) [DDAIP, dodecyl 2-(N,N dimethylamino) propionate]
effectiveness in enhancing ODAN.HCl permeability across porcine buccal tissues ([1]; in words, summary of Example 6): only marginally effective
enhancement effect on transdermal delivery of DHCl [2]: had enhancement effect
enhancement effect on transdermal delivery of LHCl [2]: had enhancement effect
enhancement effect on transdermal delivery of NHT [2]: no enhancement effect
enhancement effect on transbuccal delivery of DHCl [3, 8]: had enhancement effect
enhancement effect on transbuccal delivery of LHCl [3, 8]: had enhancement effect
aqueous solubility [4]: low aqueous solubilities

enhancement effect on transdermal delivery of LHCl [2]: enhanced
enhancement effect on transdermal delivery of NHT [2]: no enhancement effect
enhancement effect on transbuccal delivery of LHCl [3, 8]: enhanced
enhancement effect on transbuccal delivery of NHT [3, 8]: no enhancement effect
aqueous solubility [4]: low aqueous solubilities
SMILES: CS(C)=NC(=O)c1ccc(Br)cc1 [Br-iminosulfurane]

SMILES: CCCCCCCCCCCCOC(=O)C(C)N(C)C.Cl (stereo not shown) [DDAIP.HCl, dodecyl-2-N,N-dimethylaminopropionate hydrochloride]
enhancement effect on transdermal delivery of DHCl [2]: no enhancement effect
enhancement effect on transdermal delivery of LHCl [2]: no enhancement effect
enhancement effect on transdermal delivery of NHT [2]: no enhancement effect
effect on viability of EpiOral tissue compared to water [5]: did not reduce the viability

Q8 ([1]; 0.5% ODAN.HCl gel, Stage I, Control (passive)): 25.5 ± 5.1 µg/cm²
Flux ([1]; 0.5% ODAN.HCl gel, Stage I, iontophoresis 0.1 mA): 10.6 ± 4.5^b μg/cm^2/h
Flux ([1]; 0.5% ODAN.HCl gel, Stage I, iontophoresis 0.2 mA): 16.5 ± 6.5^b μg/cm^2/h
Flux ([1]; 0.5% ODAN.HCl gel, Stage I, iontophoresis 0.3 mA): 22.8 ± 4.6^b μg/cm^2/h
ER ([1]; Stage I, Control (reference)): 1
Q8 ([1]; Stage I, iontophoresis 0.1 mA): 83.3 ± 33.5 µg/cm²
ER ([1]; Stage I, iontophoresis 0.1 mA, flux vs control): 3.3
Q8 ([1]; Stage I, iontophoresis 0.2 mA): 133 ± 50.1 µg/cm²
ER ([1]; Stage I, iontophoresis 0.2 mA, flux vs control): 5.2
Q8 ([1]; Stage I, iontophoresis 0.3 mA): 190 ± 42.7 µg/cm²
ER ([1]; Stage I, iontophoresis 0.3 mA, flux vs control): 7.1
Flux ([1]; Stage II (8-24 h, passive) after 8 h iontophoresis 0.1 mA): 13.7 ± 4.3^b μg/cm^2/h
Q24 ([1]; Stage II after 8 h iontophoresis 0.1 mA): 297 ± 90.1 µg/cm²
ER ([1]; Stage II after 8 h iontophoresis 0.1 mA, flux vs control): 2.8
Flux [1, 9]: 12.7 ± 5.3^b μg/cm^2/h
Q24 [1, 9]: 337 ± 130 µg/cm²
ER ([1]; Stage II after 8 h iontophoresis 0.2 mA, flux vs control): 2.6
Q24 ([1]; Stage II after 8 h iontophoresis 0.3 mA): 380 ± 68.1 µg/cm²
ER ([1]; Stage II after 8 h iontophoresis 0.3 mA, flux vs control): 2.4
Flux ([1]; Stage II after 8 h iontophoresis 0.3 mA, listed as ODAN.HCl, monohydrochloride, dihydrate): 11.9 μg/cm^2/h
Flux ([1]; Stage II after 8 h iontophoresis 0.3 mA, monohydrochloride, dihydrate): 11.9 ± 2.3^b μg/cm^2/h
Q24 ([1]; Stage II, Control (passive)): 105 ± 22.8 µg/cm²
ER ([1]; Stage II, Control (reference)): 1
morphology of buccal tissue compared to untreated [6]: no major morphological changes
SMILES: Cc1nccn1CC1CCc2c(c3ccccc3n2C)C1=O (racemic) [ODAN•HCl, (±) 1,2,3,9-tetrahydro-9-methyl-3-[(2-methyl-1H-imidazol-1-yl)methyl]-4H-carbazol-4-one, monohydrochloride, dihydrate]

SMILES: COc1ccc([C@@H]2Sc3ccccc3N(CCN(C)C)C(=O)[C@@H]2OC(C)=O)cc1 [Diltiazem HCl, 1,5-Benzothiazepin-4(5H) one, 3-(acetyloxy)-5-[2-(dimethylamino)ethyl]-2,3-dihyro-2-(4-methoxyphenyl)-, monohydrochloride, (+)-cis-]
solubility [7]: soluble in water, methanol, and chloroform

SMILES: CN1CCCC1c1cccnc1.O=C(O)C(O)C(O)C(=O)O (stereo not shown) [Nicotine Hydrogen Tartrate, Nicotine hydrogen tartrate]
Flux ([2]; Control (untreated passive), 8 h, […] LHCl, 2% NHT or 2% DHCl gel): 1.3 ± 1.9 μg/cm^2*h
Q8 ([2]; Control (untreated passive), 8 h, tartrate): 9.9 ± 14.6 μg/cm^2
Flux ([2]; iontophoresis 0.1 mA for 8 h): 56.1 ± 11.4^b μg/cm^2*h
Q8 ([2]; iontophoresis 0.1 mA for 8 h): 433.2 ± 85.4^b μg/cm^2
Flux [2, 10]: 138.4 ± 72.3^c μg/cm^2*h
Q8 [2, 10]: 1326.6 ± 186.2^c μg/cm^2
Flux [2, 11]: 138.4 ± 72.3^b μg/cm^2*h
Q8 [2, 11]: 1326.6 ± 186.2^b μg/cm^2
Q8 [3, 12]: 6.9 ± 2.6^ μg/cm^2
Flux ([3]; Control (untreated passive), 8 h, […] LHCl, 2% NHT or 2% DHCl gel, listed as nicotine hydrogen tartrate, tartrate): 0.9 ± 0.4 μg/cm^2*h
Flux ([3]; iontophoresis 0.1 mA for 8 h): 17.6 ± 6.9^b μg/cm^2*h
Q8 [3, 13]: 629.5 ± 276.8^b μg/cm^2
Flux [3, 10]: 81.7 ± 35.9^c μg/cm^2*h
Flux [3, 11]: 81.7 ± 35.9^b μg/cm^2*h
solubility [7]: soluble in water

SMILES: CCN(CC)CC(=O)Nc1c(C)cccc1C [Lidocaine HCl, 2-(Diethylamino)-2′,6′-acetoxylidide mono-hydrochloride, monohydrate]
Q8 [3, 12]: 345.6 ± 74.3^ μg/cm^2
Flux ([3]; Control (untreated passive), 8 h, […] LHCl, 2% NHT or 2% DHCl gel, listed as lidocaine HCl, mono-hydrochloride, monohydrate): 44.7 ± 9.6 μg/cm^2*h
Flux ([3]; iontophoresis 0.1 mA for 8 h): 137.1 ± 13.1^b μg/cm^2*h
Q8 [3, 13]: 1910.2 ± 454.7^b μg/cm^2
Flux ([3]; iontophoresis 0.3 mA for 8 h, listed as lidocaine HCl, mono-hydrochloride, monohydrate): 241.7 ± 60.5^c μg/cm^2*h
Flux ([3]; iontophoresis 0.3 mA for 8 h, mono-hydrochloride, monohydrate): 241.7 ± 60.5^b μg/cm^2*h

enhancement effect on transdermal delivery of NHT [2]: no enhancement effect
enhancement effect on transbuccal delivery of NHT [3, 8]: no enhancement effect
SMILES: CCCCCCCCCCCCN1CCCCCC1=O [Azone, 1-Dodecylazacycloheptan-2-one]
